We go through four molecules from ChEMBL document CHEMBL3044734, “Major secondary metabolites produced by two commercial Trichoderma strains active against different phytopathogens” (2006).

What all share (format): functional
Test [1] concerns Globisporangium ultimum. Briefly: Antimicrobial activity against Pythium ultimum assessed as colony diameter at 0.01 ug/plug after 3 days ( Rvb = 8.50 cm).
Test [2] has as its system Globisporangium ultimum. Briefly: Antimicrobial activity against Pythium ultimum assessed as colony diameter at 1 ug/plug after 3 days ( Rvb = 8.50 cm).
Test [3] deals with Globisporangium ultimum. In words: Antimicrobial activity against Pythium ultimum assessed as colony diameter at 100 ug/plug after 3 days ( Rvb = 8.50 cm).
Test [4] concerns Rhizoctonia solani. Briefly: Antimicrobial activity against Rhizoctonia solani assessed as colony diameter at 1 ug/plug after 3 days ( Rvb = 2.95 +/- 0.11 cm).
The subject of test [5] is Rhizoctonia solani. Briefly: Antimicrobial activity against Rhizoctonia solani assessed as colony diameter at 0.01 ug/plug after 3 days ( Rvb = 2.95 +/- 0.11 cm).
In test [6] the test system is Globisporangium ultimum. In words: Antimicrobial activity against Pythium ultimum assessed as colony diameter at 200 ug/plug after 3 days ( Rvb = 8.50 cm).
The test system of test [7] is Globisporangium ultimum. Briefly: Antimicrobial activity against Pythium ultimum assessed as colony diameter at 10 ug/plug after 3 days ( Rvb = 8.50 cm).
Test [8] has as its system Gaeumannomyces tritici. In words: Antimicrobial activity against Gaeumannomyces graminis var. tritici assessed as colony diameter at 0.01 ug/plug after 3 days ( Rvb = 1.40+/- 0.8 cm).
Test [9] has as its system Gaeumannomyces tritici. In words: Antimicrobial activity against Gaeumannomyces graminis var. tritici assessed as colony diameter at 100 ug/plug after 3 days ( Rvb = 1.40+/- 0.8 cm).
Test [10] deals with Gaeumannomyces tritici. Briefly: Antimicrobial activity against Gaeumannomyces graminis var. tritici assessed as colony diameter at 200 ug/plug after 3 days ( Rvb = 1.40+/- 0.8 cm).
The subject of test [11] is Gaeumannomyces tritici. In words: Antimicrobial activity against Gaeumannomyces graminis var. tritici assessed as colony diameter at 0.1 ug/plug after 3 days ( Rvb = 1.40+/- 0.8 cm).
Test [12] deals with Rhizoctonia solani. Briefly: Antimicrobial activity against Rhizoctonia solani assessed as colony diameter at 0.1 ug/plug after 3 days ( Rvb = 2.95 +/- 0.11 cm).
For test [13], the system named is Gaeumannomyces tritici. In words: Antimicrobial activity against Gaeumannomyces graminis var. tritici assessed as colony diameter at 1 ug/plug after 3 days ( Rvb = 1.40+/- 0.8 cm).
The subject of test [14] is Rhizoctonia solani. Briefly: Antimicrobial activity against Rhizoctonia solani assessed as colony diameter at 100 ug/plug after 3 days ( Rvb = 2.95 +/- 0.11 cm).
The test system of test [15] is Rhizoctonia solani. In words: Antimicrobial activity against Rhizoctonia solani assessed as colony diameter at 10 ug/plug after 3 days ( Rvb = 2.95 +/- 0.11 cm).
In test [16] the test system is Globisporangium ultimum. Briefly: Antimicrobial activity against Pythium ultimum assessed as colony diameter at 0.1 ug/plug after 3 days ( Rvb = 8.50 cm).
Test [17] has as its system Rhizoctonia solani. Briefly: Antimicrobial activity against Rhizoctonia solani assessed as colony diameter at 200 ug/plug after 3 days ( Rvb = 2.95 +/- 0.11 cm).
Test [18] concerns Gaeumannomyces tritici. Briefly: Antimicrobial activity against Gaeumannomyces graminis var. tritici assessed as colony diameter at 10 ug/plug after 3 days ( Rvb = 1.40+/- 0.8 cm).

Consider `C/C=C/C=C/CC1=C(CC(C)O)C(=O)OC1` (stereo unspecified) [HARZIANOLIDE], for which the Activity with Globisporangium ultimum [1] is on record as 8.5 cm; in the test on Globisporangium ultimum [2], 8.5 cm; in the test with Globisporangium ultimum [3] it was 8.5 cm; with Rhizoctonia solani [4], 2.5 cm; in the test with Rhizoctonia solani [5], 2.8 cm; in the test on Globisporangium ultimum [6] it was 7.6 cm. The Activity was found to be 8.5 cm in the test with Globisporangium ultimum [7]; 1.05 cm with Gaeumannomyces tritici [8]; 1.25 cm in the test on Gaeumannomyces tritici [9]; 0.7 cm in the test with Gaeumannomyces tritici [10]; 1.25 cm in the test with Gaeumannomyces tritici [11]; 2.83 cm with Rhizoctonia solani [12]. The Activity in the test with Gaeumannomyces tritici [13] is 1.43 cm; with Rhizoctonia solani [14], 2.7 cm; with Rhizoctonia solani [15], 3.05 cm; in the test on Globisporangium ultimum [16] it was 8.5 cm; in the test on Rhizoctonia solani [17], 2.35 cm; in the test with Gaeumannomyces tritici [18], 1.1 cm.

For the molecule `C/C=C/CC(C)C(=O)c1c(O)c(OC)c(OC)[nH]c1=O` (stereo unspecified) [HARZIANOPYRIDONE], the Activity in the test on Globisporangium ultimum [1] is recorded as 8.5 cm; in the test with Globisporangium ultimum [2], 8.5 cm; in the test on Globisporangium ultimum [3], 7.9 cm; in the test with Rhizoctonia solani [4], 1.2 cm; in the test with Rhizoctonia solani [5] it was 2.73 cm; in the test with Globisporangium ultimum [7] it was 8.5 cm. The Activity in the test with Gaeumannomyces tritici [8] came out at 0.98 cm; in the test on Gaeumannomyces tritici [9] it was 0 cm; in the test on Gaeumannomyces tritici [11], 0.7 cm; in the test on Rhizoctonia solani [12], 2.53 cm; in the test with Gaeumannomyces tritici [13], 0 cm; in the test with Rhizoctonia solani [14], 0 cm. The results for the Activity in the test with Rhizoctonia solani [15], in the test with Globisporangium ultimum [16] and in the test on Gaeumannomyces tritici [18] were 0 cm, 8.5 cm and 0 cm, respectively.

On to `C/C=C/C=C/C1=CC2=CC(=O)[C@](C)(OC(=O)[C@H](C)O)C(=O)C2=CO1` [T22AZAPHILONE], for which the Activity with Globisporangium ultimum [1] turned out to be 8.5 cm; in the test on Globisporangium ultimum [2], 8.3 cm; in the test on Globisporangium ultimum [3], 0 cm; with Rhizoctonia solani [4], 1.9 cm; in the test with Rhizoctonia solani [5] it was 2.9 cm; with Globisporangium ultimum [7], 5.2 cm. For the same molecule, the Activity is listed as 1.18 cm with Gaeumannomyces tritici [8]; 0 cm in the test with Gaeumannomyces tritici [9]; 1.13 cm with Gaeumannomyces tritici [11]; 2.83 cm in the test with Rhizoctonia solani [12]; 0 cm in the test on Gaeumannomyces tritici [13]; 0 cm in the test with Rhizoctonia solani [14]. Besides, the Activity with Rhizoctonia solani [15] is 0 cm; in the test on Globisporangium ultimum [16], 8.5 cm; in the test on Gaeumannomyces tritici [18], 0 cm.

On to `C/C=C/C=C/CC1=C(CC(C)=O)C(=O)OC1` [T39BUTENOLIDE], for which the Activity with Globisporangium ultimum [1] stood at 8.5 cm; in the test on Globisporangium ultimum [2], 8.5 cm; with Globisporangium ultimum [3], 8.05 cm; with Rhizoctonia solani [4], 2.4 cm; in the test on Rhizoctonia solani [5], 2.73 cm; with Globisporangium ultimum [6], 6.35 cm. The Activity is on record as 8.5 cm in the test on Globisporangium ultimum [7]; 1.2 cm with Gaeumannomyces tritici [8]; 0 cm in the test with Gaeumannomyces tritici [9]; 0 cm with Gaeumannomyces tritici [10]; 1.13 cm with Gaeumannomyces tritici [11]; 2.5 cm in the test on Rhizoctonia solani [12]. In addition, the Activity with Gaeumannomyces tritici [13] was 1.1 cm; in the test on Rhizoctonia solani [14] it was 0 cm; with Rhizoctonia solani [15], 2.13 cm; with Globisporangium ultimum [16], 8.5 cm; in the test with Rhizoctonia solani [17] it was 0 cm; with Gaeumannomyces tritici [18] it was 1.23 cm.
